# Measured values taken from ChEMBL document CHEMBL1153387 (J Med Chem, 2009).
# pEC50, pIC50, pKi: −log10 of the molar value. Active and inactive are the calls of the source. The calls are words filed in the database; no cut-off is given here. Non-standard residues stand in square brackets, D forms with d. Residues, ends and D or L forms follow the SMILES beside them. *: point of attachment. X2 = [N-]=[N+]=N[C@@H](CCCCN)CC(=O)*; NMeR = CN[C@@H](CCCNC(=N)N)C(=O)O; Tle = CC(C)(C)[C@H](N)C(=O)O
# Experiments:
# Rattus norvegicus [1] = experiment: Hypothermic activity in Sprague-Dawley rat assessed as time duration of maximal body temperature decrease at 5 mg/kg, ip; format: functional; conditions: route intraperitoneal
# Rattus norvegicus [2] = experiment: Hypothermic activity in Sprague-Dawley rat assessed as decrease in core body temperature at 5 mg/kg, ip measured up to 150 mins; format: functional, organism-based; parameters: dose 5 mg/kg
# Rattus norvegicus [3] = experiment: Hypothermic activity in Sprague-Dawley rat assessed as decrease in core body temperature at 5 mg/kg, ip at time of maximal body temperature decrease; format: functional; conditions: route intraperitoneal
# [4] = molecular target: T1, Neurotensin receptor type 1 (Homo sapiens, UniProt P30989); experiment: Binding affinity to human NTR1
# T1 sequence (P30989 whole entry): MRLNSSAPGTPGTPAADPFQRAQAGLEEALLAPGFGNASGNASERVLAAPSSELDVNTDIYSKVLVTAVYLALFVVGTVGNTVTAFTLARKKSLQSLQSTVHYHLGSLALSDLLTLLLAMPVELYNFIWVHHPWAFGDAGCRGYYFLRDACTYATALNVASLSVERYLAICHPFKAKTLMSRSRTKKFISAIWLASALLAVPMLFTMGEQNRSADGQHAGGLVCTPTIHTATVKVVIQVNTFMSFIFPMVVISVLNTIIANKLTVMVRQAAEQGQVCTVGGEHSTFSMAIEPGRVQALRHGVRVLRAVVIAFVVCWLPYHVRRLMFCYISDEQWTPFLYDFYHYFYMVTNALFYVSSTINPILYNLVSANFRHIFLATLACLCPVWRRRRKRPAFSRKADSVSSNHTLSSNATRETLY
# Serum [5] = experiment: Metabolic stability in human serum assessed as compound degradation rate at 1 mM by MALDI-TOF mass spectrometry assay; format: ADME, cell-free; conditions: 1000 µM
# [6] = molecular target: T1, Neurotensin receptor type 1; experiment: Displacement of [125I]I-Tyr(3)NT from human NTR1
# Serum [7] = experiment: Metabolic stability in rat serum assessed as compound degradation rate at 1 mM by MALDI-TOF mass spectrometry assay; format: ADME, cell-free; conditions: 1000 µM
# [8] = Metabolic stability in rat serum assessed as half time of disappearance at 1 mM by MALDI-TOF mass spectrometry assay; format: ADME, cell-free; conditions: read-out: T50
# [9] = molecular target: T1, Neurotensin receptor type 1; experiment: Agonist activity at NTR1 in human HT-29 cells assessed as increase in intracellular calcium concentration by FLIPR assay; format: functional, cell-based
# [10] = Metabolic stability in human serum assessed as half time of disappearance at 1 mM by MALDI-TOF mass spectrometry assay; format: ADME, cell-free; conditions: read-out: T50
Structure (SMILES),Time (Rattus norvegicus [1]) [min],Activity (Rattus norvegicus [2]),Activity (Rattus norvegicus [3]) [°C],pKi [4],Activity (Serum [5]) [µmol/min],pIC50 [6],pKi [6],Activity (Serum [7]) [µmol/min],half-life at 1000 µM [8] [days],pEC50 [9],half-life at 1000 µM [10] [days]
O=C(CCCN1CCC(O)(c2ccc(Cl)cc2)CC1)c1ccc(F)cc1 [HALOPERIDOL],90,Active,-1.34,–,–,–,–,–,–,–,–
CC(C)C[C@H](NC(=O)[C@@H](NC(=O)[C@H](Cc1ccc(O)cc1)NC(=O)[C@@H]1CCCN1C(=O)[C@H](CCCNC(=N)N)NC(=O)C[C@H](CCCCN)N=[N+]=[N-])C(C)(C)C)C(=O)O (X2-RPY[Tle]L-OH),120,–,-2.57,8.35,0.133,8.14,8.26,0.16,2.17,8.14,2.61
CN[C@@H](CCCNC(=N)N)C(=O)N[C@@H](CCCCN)C(=O)N1CCC[C@H]1C(=O)N[C@@H](Cc1c[nH]c2ccccc12)C(=O)N[C@H](C(=O)N[C@@H](CC(C)C)C(=O)O)C(C)(C)C (H-[NMeR]KPW[Tle]L-OH),270,–,-5.52,7.02,0.068,6.62,6.74,0.052,6.77,6.70,5.13
